Read-outs that look alike come from different tables or passages of the source.
What was measured:
rabbits = assay: Pyrogenicity test; settings: i.v., rabbit, feverish = rise of 0.6° C. or more
Method: In this test, rabbits were used and 5 ml/kg of the test compound diluted to a definite concentration with physiological saline was intravenously injected into each animal. Then the rectal temperature was measured. Rabbits showing an increase in the bodily temperature by 0.6° C. or more were referred to as feverish.

[1] = tested on: BALB/c mouse spleen cells; assay: Mitogenic activity (3H-thymidine incorporation into mouse spleen cells)
anti-BSA IgG antibody = assay: Adjuvant activity (serum anti-BSA IgG by ELISA); type: in vivo, mouse (BALB/c); settings: 100 μg compound with 100 μg BSA in FIA, s.c., days 0 and 28; day 5 after booster; BSA alone = 1.00
Method: In this test, male BALB/c mice (each group having 6 animals) were used. On the days 0 and 28, 100 μg of bovine serum albumin (BSA) containing 100 μg of the compound of the present invention on the comparative compound or no such a compound was subcutaneously injected into each animal in the form of a water-in-oil type emulsion in Freund's incomplete adjuvant (FIA). On the day 5 following the booster, the level of anti-BSA IgG antibody formed in the serum was determined by the ELISA method. […] [formula]

male C57BL mouse = assay: Galactosamine-loaded lethal toxicity test; type: in vivo; settings: 16 mg D-galactosamine/HCl i.p., compound i.v., 24 hours
Method: The galactosamine-loaded lethal toxicity was determined by using the following experimental system.
16 mg of D-galactosamine/HCl was intraperitoneally administered to a male C57BL mouse aged 8 weeks. Immediately thereafter, the compound of the present invention was intravenously injected into the animal and the conditions were observed after 24 hours.

[2] = tested on: BALB/c mouse spleen cells; assay: Polyclonal B cell activation activity (ELISPOT); settings: 72 hours
[3] = tested on: vesicular stomatitis virus (VSV); type: cell-based, vesicular stomatitis virus; mouse L929 cells
IL-1β = assay: Cytokine inducing activity: IL-1β (ELISA), human peripheral blood monocytes; type: cell-based
Method: (§1) The cytokine inducing activity was tested by using an ELISA system for assaying TNF-α (manufactured by Amersham Japan) and another ELISA system for assaying IL-1β (manufactured by Otsuka Pharmaceutical Co., Ltd.). […] Then the cytokines in the culture supernatant were assayed by the ELISA method.

male rabbit = assay: Local Shwartzman reaction; type: in vivo; settings: 100 μg/site intradermal, elicitation with Salmonella minnesota LPS i.v.
Method: This test was carried out in the following manner. The test compound, which had been diluted to a definite concentration with 0.2 ml of physiological saline, was intradermally injected into a male rabbit. After 24 hours, 100 μg/ml/kg of Salmonella minnesota 9700 LPS-W (manufactured by Difco) was intravenously injected into the animal for elicitation. After 4 hours, intradermal hemorrhage was observed.

[4] = tested on: Tachypleus tridentatus lysate; settings: Pregel reagent, gel formation
TNF-α = assay: Cytokine inducing activity: TNF-α (ELISA), human peripheral blood monocytes; type: cell-based; settings: 24 hours
Method: as §1

[5] = tested on: Moloney virus-induced lymphoma YAC-1; assay: NK (natural killer) activity of spleen cells from treated mice against YAC-1 (51Cr release); type: in vivo, mouse (BALB/c)
Method: This test was carried out in the following manner. […] On the day 14, the spleen cells of the animal were collected. To the prepared spleen cells (1×10^6 cells/0.1 ml), target cells (Moloney virus-inducedlymphoma YAC-1; 2×10^4 cells/ml) labeled with ^51 Cr were added followed by the incubation for 4 hours. […] After the completion of the incubation, 0.1 ml of the culture supernatant was collected and the amount (radiation dose) of ^51 Cr liberated due to the damage in the target cells was measured. Then the NK activity (%) was calculated by substituting each value in accordance with the following formula. NK Activity (%)={(Radioactivity of test group-Radioactivity of minimum free control group)(cpm)/(Radioactivity maximum free control group-Radioactivity of minimum free control group)(cpm)}

[6] = tested on: IL-1 receptor antagonist (IL-1ra); assay: IL-1 receptor antagonist (IL-1ra) production (ELISA), human peripheral blood monocytes; type: cell-based
[7] = tested on: methylcholanthrene-induced fibrosarcoma (Meth A); assay: Antitumor activity (macrophage cytostatic activity on Meth A fibrosarcoma); type: cell-based, mouse (BALB/c)
Method: This test was effected by examining a cytostatic activity on methylcholanthrene-induced fibrosarcoma (Meth A). Namely, adherent cells (macrophages) were collected from spleen cells of a BALB/c mouse. […] Then the ^3 H-thymidine-uptake suppression ratio was calculated by substituting the obtained values in accordance with the following formula and the result was expressed as the cytostatic activity on macrophages.
Cytostatic Activity (%)={1-(Radioactivity of macrophages and target cells-Radioactivity of macrophages alone)(cpm)/(Radioactivity of target cells along)}×100

[8] = Mus musculus, read-out: Mitogen activity, Stimulation Index

Question: CCCCCCCCCCCCCC(=O)OC(CCCCCCCCCCC)CC(=O)O[C@@H]1[C@@H](NC(=O)CC(CCCCCCCCCCC)OC(=O)CCCCCCCCCCC)[C@H](OC[C@H]2O[C@H](OP(=O)(O)O)[C@H](NC(=O)CC(O)CCCCCCCCCCC)[C@@H](OC(=O)CCCCCCCCCCCCC)[C@@H]2O)O[C@H](CO)[C@H]1OP(=O)(O)O (stereo partly drawn) [Comparative compound 506, 6-O-[2-deoxy-2-(3-dodecanoyloxytetradecanoylamino)-3-O-(3-tetra-decanoyloxytetradecanoyl)-4-O-phosphono-β-D-glucopyranosyl]-2-deoxy-2-(3-hydroxytetradecanoylamino)-3-O-tetradecanoyl-1-O-phosphono-α-D-glucopyranose, reference compound] was tested. Which Pyrogenicity (rabbits; dose of 0.01 μg) did it give?
Answer: showed pyrogenicity

Question: And the “Mitogen activity, Stimulation Index” value ([1]; 50 μg/ml)?
Answer: 6.28

Question: What about the “Adjuvant activity, Stimulation Index” value (anti-BSA IgG antibody) of the same compound?
Answer: 1.99

Question: And the “Galactosamine-loaded lethal toxicity, LD50” value (male C57BL mouse)?
Answer: 0.0079 µg

Question: And the “Polyclonal B cell activation activity, Stimulation Index” value ([2]; 10 μg per 2.5×10^6 cells)?
Answer: 15.7

Question: And the “Polyclonal B cell activation activity, Stimulation Index” value ([2]; 100 μg per 2.5×10^6 cells)?
Answer: 20.7

Question: What about the “Antiviral activity (reciprocal of the dilution ratio to the 1 mg/ml sample wherein L929 cells survived at a ratio of 50%)” value [3] of the same compound?
Answer: 2.2

Question: For CCCCCCCCCCCCCCCC(=O)OC(CCCCCCCCCCCC(C)C)CC(=O)NC1C(OCC2OC(OP(=O)(O)O)C(NC(=O)CC(O)CCCCCCCCCCCC(C)C)C(O)C2O)OC(CO)C(O)C1O (stereo not drawn) [Invention compound], which “suppression of the production of IL-1β induced by LPS originating in Escherichia coli” value (IL-1β; added simultaneously, 50 times as much as LPS) is on record?
Answer: suppressed the production of IL-1β

Question: And the “suppression of the production of IL-1β induced by compound 506” value (IL-1β; added simultaneously, 50 times as much as synthetic lipid A 506)?
Answer: suppressed the production of IL-1β

Question: And the “activity of inducing the production of IL-1β” value (IL-1β; human peripheral blood monocytes, 24 hours)?
Answer: little activity

Question: And the Pyrogenicity (rabbits; dose of 10 μg/kg)?
Answer: showed no pyrogenicity

Question: And the fold induction at 5 µg/mL [1, 8]?
Answer: 4.17

Question: And the fold induction at 50 µg/mL [1, 8]?
Answer: 7.46

Question: What about the “Local Shwartzman reaction, hemorrhage” value (male rabbit) of the same compound?
Answer: no hemorrhage

Question: And the “Adjuvant activity, Stimulation Index” value (anti-BSA IgG antibody)?
Answer: 2.48

Question: And the “Limulus test, minimum effective dose relative to that of the synthetic lipid A 506” value [4]?
Answer: 1,000 times

Question: And the “Galactosamine-loaded lethal toxicity, LD50” value (male C57BL mouse)?
Answer: > 10 µg

Question: What about the “activity of inducing the production of TNF-α” value (TNF-α) of the same compound?
Answer: little activity

Question: What about the “Polyclonal B cell activation activity, Stimulation Index” value ([2]; 10 μg per 2.5×10^6 cells) of the same compound?
Answer: 22.0

Question: And the “Polyclonal B cell activation activity, Stimulation Index” value ([2]; 100 μg per 2.5×10^6 cells)?
Answer: 30.3

Question: And the NK activity ([5]; 100 μg i.v. on days 0 and 7, spleen cells collected day 14, BALB/c mouse, YAC-1 targets, 4 hours)?
Answer: 50.1%

Question: What about the “NK activity, comparison with synthetic lipid A 506” value ([5]; 100 μg i.v. on days 0 and 7, in words) of the same compound?
Answer: comparable to the synthetic lipid A 506

Question: What about the “production of IL-1ra in the culture supernatant, compared with synthetic lipid A 506” value [6] of the same compound?
Answer: in a larger amount than the synthetic lipid A 506 did

Question: And the “Antiviral activity (reciprocal of the dilution ratio to the 1 mg/ml sample wherein L929 cells survived at a ratio of 50%)” value ([3]; VSV 100 TCID50/0.1 ml on L929 cells, 24 hours)?
Answer: 4.9

Question: And the inhibition at 10 µg/mL ([7]; 24 h, 10 μg/ml, Meth A with mouse macrophages)?
Answer: 58.6%

Question: What about the inhibition at 100 µg/mL ([7]; 24 h, 100 μg/ml, Meth A with mouse macrophages) of the same compound?
Answer: 64%

Question: What about the “Cytostatic activity, comparison with synthetic lipid A 506” value ([7]; in words) of the same compound?
Answer: comparable to that of the synthetic lipid A 506

Source: US5654289A, “Disaccharide derivative” (Suntory Limited, priority 1993, dated 1997)
